# Measurements from patent US12629368B2, “Use of N-(3-(4-(3-(diisobutylamino)propyl)piperazin-1-yl)propyl)-1H-benzo[d]imidazol-2-amine sulphate salts and solvates thereof for the treatment of motor neuron diseases and neuromuscular junction disorders” (ALZPROTECT, priority 2020, dated 2026).
# Experiments:
# [1] = tested on: ALS; conditions: injected intravenously, small subset of people with ALS, phase 3; cited from earlier work
# [2] = tested on: primary culture of rat spinal motor neurons; test: Rat primary spinal motor neurons injured with glutamate, 48 h co-incubation (Example 1); type: cell-based; conditions: 48 h incubation
# Method: (§1) Rat motor neurons (MN) were cultured as previously described by Martinou et al., Neuron. 1992, April; 8(4), 737-44 and Wang et al. Hum. Mol. Genet., 2013 Dec. 1; 22(23), 4706-19. Pregnant female rats of 14 days gestation (Rats Wistar; Janvier Labs France) were killed using a deep anesthesia with CO2 followed by cervical dislocation. Then, fetuses were removed from the uterus and immediately placed in ice-cold L15 Leibovitz medium with a 2% penicillin (10,000 U/mL) and streptomycin (10 mg/mL) solution (PS) and 1% bovine serum albumin (BSA). Spinal cords were treated for 20 min at 37° C. with a trypsin-Ethylenediaminetetraacetic acid (EDTA) solution at a final concentration of 0.05% trypsin and 0.02% EDTA. The dissociation was stopped by the addition of Dulbecco's modified Eagle's medium (DMEM) with 4.5 g/liter of glucose, containing DNAse I grade II (final concentration 0.5 mg/mL) and 10% fetal calf serum (FCS). Cells were mechanically dissociated by three forced passages through the tip of a […]. Cells were then centrifuged at 180×g for 10 min at +4° C. on a layer of BSA (3.5%) in L15 medium. The supernatant was discarded, and the pellet was resuspended in a defined culture medium consisting of Neurobasal medium with a 2% solution of B27 supplement, 2 mmol/liter of L-glutamine, 2% of PS solution, and 10 ng/mL of brain-derived neurotrophic factor (BDNF). Viable cells were counted in a Neubauer cytometer, using the trypan blue exclusion test. The cells were seeded at a density of 20,000 per well in 96-well plates (immunostaining) precoated with poly-L-lysine and cultured at 37° C. in an air (95%)-CO2 (5%) incubator. The medium was changed every 2 days. The motor neurons were injured with glutamate after 13 days of culture.
# On day 13 of culture, glutamate was added to a final concentration of 5 μM diluted in control medium in presence of the sulphate salt for 20 min. After 20 min, glutamate was washed and fresh culture medium with the sulphate salt was added for 48 hours.
# (§2) After 14 or 15 days of culture (48 h after the glutamate injury), the cell culture supernatant was collected and the spinal cord MNs were fixed by a cold solution of ethanol (95%) and acetic acid (5%) for 5 min at −20° C. After permeabilization with 0.1% of saponin, cells were blocked for 2 h with PBS containing 1% fetal calf serum. Then, cells were incubated with: • a) mouse monoclonal antibody anti-microtubule associated protein 2 (MAP-2) at dilution of 1/400 in PBS containing 1% fetal calf serum and 0.1% of saponin. This antibody binds specifically MAP-2 present in cell bodies and neurites of all MNs. […] Nuclei of neurons were labeled by a fluorescent marker (Hoechst solution). • b) Rabbit polyclonal antibody anti-TDP43 at dilution of 1/100 in PBS containing 1% fetal calf serum and 0.1% of saponin. Cytoplasmic localization of TDP43 was investigated.
# All images were taken under the same conditions (exposition time, gain and laser intensity). Analysis of different endpoints, were automatically performed using Custom Module Editor (Molecular Devices). […]
# (§3) The endpoints were: • survival of MN (number of MN) • total neurite outgrowth of MN (expressed in μm) • TDP43 (extranuclear, eTDP43) in MN (expressed as area eTDP43-μm^2/number of MN) Statistical Analysis
# All values are expressed as mean+/−SEM. […]
# [3] = tested on: rat primary motor neurons; test: Rat primary motor neurons injured with glutamate, 24 h pre-treatment + 24 h post-injury treatment (Example 2); type: cell-based
# Method: as §1, §2
# All images were taken under the same conditions (exposition time, gain and laser intensity). Analysis of different endpoints, were automatically performed using Custom Module Editor (Molecular Devices). Motoneurons (MAP-2) were distinguished from interneurons (staining MAP-2) using the following morphological criteria: a cell body diameter […] and the presence of a minimum of three neuritic processes (Ferraiuolo et al. Brain 2011: 134; 2627-2641).
# as §3
# The culture was carried out as described in example 1.
# On day 12 of culture, primary motor neurons were treated with the sulphate salt for 24 hours. […]
# [4] = tested on: SOD1^G93A Tg rat spinal cord motor neurons; test: Primary culture of SOD1G93A Tg rat spinal cord motor neurons injured with glutamate (Example 3); type: cell-based
# Method: The day of the dissection (from pregnant females at 14 days of gestation), a piece of each embryo head (˜3 mm^3) was placed in a 2 mL tube free DNase with a new scalpel. The DNA was extracted with the SYBR Green Extract-N-Amp tissue PCR kit (Sigma Aldrich). Briefly, 120 μL of extraction solution was put on each piece of embryo heads. Then, they were incubated for 10 min at room temperature. At the end of this incubation period, the heads were incubated for 5 min at 95° C. Immediately after this last incubation, 100 μL of neutralizing solution was added; each DNA extract was diluted at 1/40 and stored at +4° C. until use. SOD1^G93A gene was determined using genomic fragment with human SOD1 primers (5′-[…]-3′; 5′-[…]-3′). The SOD1 primers were diluted at 3 μM in sterile ultrapure water. Briefly, a mix for PCR was prepared with ultrapure water (4 μL per sample), primer at 3 μM (2 μL per sample) and Master Mix (10 μL per sample). In a PCR 96 wells plate, 16 μL of PCR mix was added in each well. 4 μL of each diluted DNA was added according to a plan deposit.
# Rat spinal cord (SC) motor neurons were cultured as described by Martinou et al., Neuron. 1992, April; 8(4), 737-44 and Wang et al. Hum. Mol. Genet., 2013 Dec. 1; 22(23), 4706-19. Pregnant female rats of 14 days of gestation were killed by cervical dislocation. Fetuses were collected and immediately placed in ice-cold L15 Leibovitz medium with a 2% penicillin (10,000 U/mL) and streptomycin (10 mg/mL) solution (PS) and 1% bovine serum albumin (BSA). Each fetus was dispatched on numerating petri dish (35 mm of diameter). Tail of fetuses were cut, placed on 1.5 ml tube free DNAase; the DNA was extracted with the Extract-N-Amp Tissue Kit.
# The genotyping of SOD tg fetuses was performed with the kit Fast SYBR Green Master Mix. This genotyping was made during the dissection of spinal cord, thus at the end of the dissection culture of SOD Tg spinal cord and WT spinal cord was done. Spinal cords were removed and placed in ice-cold medium of Leibovitz (L15). SC were treated for 20 min at 37° C. with a trypsin-EDTA solution at a final concentration of 0.05% trypsin and 0.02% EDTA. The dissociation was stopped by addition of Dulbecco's modified Eagle's medium (DMEM) with 4.5 g/liter of glucose, containing DNAse I grade II (final concentration 0.5 mg/mL) and 10% fetal calf serum (FCS). Cells were mechanically dissociated by three forced passages through the tip of a 10-ml pipette. Cells were then centrifuged at 180×g for 10 min at +4° C. on a layer of BSA (3.5%) in L15 medium. […] Viable cells were counted in a Neubauer cytometer, using the trypan blue exclusion test. […]
# [5] = tested on: spinal cord/muscle neuromuscular junctions; test: Co-culture of human myoblasts and rat spinal cord explants injured with glutamate, neuromuscular junctions (Example 4); type: cell-based, human muscle cell line; conditions: 300 nM, glutamate 60 μM 20 min, 48 h
# [6] = tested on: ALS; conditions: oral drug, ALS patients; cited from earlier work
# [7] = dose dependence, 5 μM glutamate 20 min, 48 h
smiles,measurement,setting,value
CC1=NN(c2ccccc2)C(=O)C1 [Edavarone],Decline of ALS Functional Rating Scale-Revised score compared with placebo,[1],significantly smaller decline
CC(C)CN(CCCN1CCN(CCCNc2nc3ccccc3[nH]2)CC1)CC(C)C.O=S(=O)(O)O.O=S(=O)(O)O [N-(3-(4-(3-(diisobutylamino)propyl)piperazin-1-yl)propyl)-1H-benzo[d]imidazol-2-amine di-sulphate],Effect on motor neuron survival compared to the glutamate condition,"[2]; 10 nM to 30 nM, 5 μM glutamate 20 min",positive and significant effect on survival
same,"Neurite network integrity (mean length, percentage of control)","[2]; 30 nM (maximal effect), 5 μM glutamate 20 min",80%
same,"Motor neuron survival (mean survival, percentage of control)","[2]; 30 nM (maximal effect), 5 μM glutamate 20 min, glutamate alone 55%",82%
same,Extranuclear TDP-43 (cytoplasmic accumulation),"[2]; 10 and 30 nM, 5 μM glutamate 20 min",able to prevent the accumulation of TDP-43 in the cytoplasm
same,Effect on neurite network after glutamate injury,[2]; all investigated doses,able to improve the neurite network after glutamate injury
same,Effect on motor neuron survival compared to the glutamate condition,"[3]; 3 nM to 30 nM, 24 h pre-incubation + 24 h post-injury",positive and significant effect on survival
same,Extranuclear TDP-43 (abnormal distribution),"[3]; 10 nM to 30 nM, glutamate alone eTDP-43 signal 128% of control",able to fully prevent the abnormal distribution of TDP-43
same,"Neurite network integrity (mean length, percentage of control)","[3]; 30 nM (maximal effect), 24 h pre-incubation + 24 h post-injury",91%
same,"Motor neuron survival (mean survival, percentage of control)","[3]; 30 nM (maximal effect), 24 h pre-incubation + 24 h post-injury, glutamate alone 65%",87%
same,Effect on neurite network (protection from glutamate damage),"[3]; all investigated doses, 24 h pre-incubation + 24 h post-injury",able to protect the neurite network from glutamate damage
same,Protective effects compared with Riluzole and Edaravone,[4]; 300 nM versus Riluzole 1 μM and Edaravone 5 μM,greater than those of Riluzole or Edaravone
same,"Neuroprotection (number of MNs, neurite network, TDP-43 distribution)","[4]; all investigated doses, 5 μM glutamate 20 min, 48 h",neuroprotective
same,Protective effect on neuronal survival,[4]; [7],dose-dependent
same,Protective effect on the distribution of TDP-43,[4]; [7],dose-dependent
same,Neuroprotective effect on neuromuscular junctions and neurite network against glutamatergic stress,[5],successfully protected the neuromuscular junctions and the neurite network
same,Number of NMJs,[5],increased
same,Total area of NMJs,[5],increased
same,Total neurite network,[5],increased
Nc1nc2ccc(OC(F)(F)F)cc2s1 [Riluzole],Effect on motor and respiratory functions,[6],no effect
